Test results from patent US8834843B2, “Imaging method” (GE Healthcare Limited, priority 2007, dated 2014).
Where two headings read alike, the source gives them in different places. Numbered stars: 1 amine (or outer) side, 2 acyl side, 3 side chain; on linkers, the order of the positions; unused ones are H or OH. Bridge positions count the residues as written; N and C are the ends. Side chains are listed from the residue outwards. Peptide text beside a SMILES is read from it. * marks the point of attachment. X1 = C/C(=N\O)C(C)(C)NCCC(CCNC(C)(C)/C(C)=N/O)CCN*; Glutaryl = O=C(CCCC(=O)[*:2])[*:1]; X2 = NC(=O)COCC(=O)NCCOCCOCCOCCN*

Tests used:
[1] = Biodistribution in BDL rats with and without excess cold compound; format: in vivo; conditions: male, Sprague Dawley, rat, iv, total radioactivity, BDL rats, 15 days post-op, 1 hour post-injection; for dose excreted at 1 h: bile and urine
Description: (§1) On the appropriate day post surgery BDL and sham animals were removed and put under isoflurane anaesthesia, then each animal was injected with 0.3 ml intravenously (i.v.) via tail vein (˜3MBq). At the appropriate time point post-injection of the test item, each animal was re-anaesthetised with isoflurane, sacrificed by cervical dislocation weighed and the weight recorded via a barcode scanning system. Each animal was dissected and the following organs and tissues were removed and counted using BASIL counter protocol 40 or manual counting:
(§2) The recorded activity in a whole organ (e.g., liver) was corrected for background radioactivity and for radioactive decay and the biodistribution of radioactivity calculated by reference to Formula I:
(§3) [formula] where: • A=counts per second measured in organ • B=total counts per second measured in all samples (excluding the injection site)
(§4) The percentage of injected radioactivity in the weighed tissue samples (e.g., blood) was calculated to give % i.d. in the entire tissue by reference to Formula 2:
(§5) [formula] where: • Zs=counts per second in sample • Ws=weight of sample in grams • Wb=weight of animal in grams immediately after sacrifice • B=total counts per second measured in all the samples (excluding the injection site) • F=tissue specific factor representing the mass of the tissue as a proportion of the total body weight of the animal
(§6) The biodistribution of radioactivity was investigated in 15 days post-operatively in BDL and sham-operated male Sprague Dawley rats (procedures described in Example 3) 1 hour following of intravenous injection via tail vein of ˜3 MBq of Compound 8, both before and after addition of 1:100 and 1:10,000 fold excess of cold Compound 8. At the appropriate time point post-injection of the test Item, each animal was re-anaesthetised with isoflurane, sacrificed by cervical dislocation and weighed. Each animal was dissected and organs and tissues (see Tables 5 and 6 below) were removed and counted using BASIL counter protocol 40 or manual counting.

[2] = test system: BDL fibrogenic liver; assay: as above; format: in vivo; conditions: rat, in vivo
Description: as §1, §2, §3, §4, §5, §6

[3] = test system: Integrins on Stellate Cell Membranes; assay: Binding to integrins on stellate cell membranes (125I-echistatin competition); set-up: species or system rat; conditions: cold compound vs 125I-echistatin, 37° C. for 60 min; read-out: Ki in the activated stellate cell membrane assay
Description: An activated rat liver stellate cell line (immortalized) was a kind gift from Professor Trond Berg at University of Oslo. The cells were grown in 150 mm culture flasks to confluence in Dulbeccos modified Eagels medium containing 10% FBS, glutamine and Penicillin/Streptomycin.
The cells were washed twice in ice cold PBS, pH 7.4, added 10 ml PBS and scraped off with a rubber policeman and transferred to a 50 ml vial on ice. Another 10 ml PBS were added to the flasks, scraped and combined with the first cells. The cells were centrifuged at 2000 rpm at 4° C. for 10 min. The supernatant was poured off and the pellet resuspended in 3 ml PBS. All pellets were combined into one tube, centrifuged as above and the final pellet frozen at −70° C. immediately.
The cell pellets were resuspended in ice-cold homogenization buffer (10 times the amount of cells, for example 2 g pellet to 20 ml homogenization buffer) containing 50 mM Tris-HCl, 5 mM MgCl2, 1 mM EGTA, pH7.4 and in addition protease inhibitors 10 ug/ml leupeptin, 10 ug/ml pepstatin, 200 ug/ml Bacitracin, 0.5 ug/ml aprotinin and 100 uM PMSF. […]
An experiment was set up in a 96-well plate. […] This filterspot was cut off and added a tube that finally was counted in a gamma-counter. […]

Structure (SMILES): C/C(=N\O)C(C)(C)NCCC(CCNC(=O)CCCC(=O)NCCCC[C@@H]1NC(=O)CSC[C@@H](C(=O)NCCOCCOCCOCCNC(=O)COCC(N)=O)NC(=O)[C@H](Cc2ccccc2)NC(=O)[C@@H]2CSSC[C@H](NC1=O)C(=O)N[C@@H](CCCNC(=N)N)C(=O)NCC(=O)N[C@@H](CC(=O)O)C(=O)N2)CCNC(C)(C)/C(C)=N/O (some centres unmarked) [Compound 8] ({CH2CO}-K([Glutaryl-X1])CRGDCFC-X2; disulfide 2-6; thioether N-8)
- dose excreted at 1 h ([1]; 3 MBq, 10K-fold excess cold Compound 8): 41.6%
- dose excreted at 1 h ([1]; 3 MBq, 100-fold excess cold Compound 8): 38.3%
- dose excreted at 1 h ([1]; 3 MBq, no excess): 41%
- tissue uptake dose at 1 h ([1]; blood, 10K-fold excess cold Compound 8, read-out: Activity in Blood, Mean): 1.6 %ID
- tissue uptake dose at 1 h ([1]; blood, 100-fold excess cold Compound 8, read-out: Activity in Blood, Mean): 1.61 %ID
- tissue uptake dose at 1 h ([1]; blood, no excess, read-out: Activity in Blood, Mean): 1.47 %ID
- tissue uptake dose at 1 h ([1]; bone, 10K-fold excess cold Compound 8, read-out: Activity in Bone, Mean): 3.18 %ID
- tissue uptake dose at 1 h ([1]; bone, 100-fold excess cold Compound 8, read-out: Activity in Bone, Mean): 2.97 %ID
- tissue uptake dose at 1 h ([1]; bone, no excess, read-out: Activity in Bone, Mean): 3.02 %ID
- tissue uptake dose at 1 h ([1]; carcass, 10K-fold excess cold Compound 8, read-out: Activity in Carcass, Mean): 6.14 %ID
- tissue uptake dose at 1 h ([1]; carcass, 100-fold excess cold Compound 8, read-out: Activity in Carcass, Mean): 6.47 %ID
- tissue uptake dose at 1 h ([1]; carcass, no excess, read-out: Activity in Carcass, Mean): 4.36 %ID
- tissue uptake dose at 1 h ([1]; heart, 10K-fold excess cold Compound 8, read-out: Activity in Heart, Mean): 0.14 %ID
- tissue uptake dose at 1 h ([1]; heart, 100-fold excess cold Compound 8, read-out: Activity in Heart, Mean): 0.13 %ID
- tissue uptake dose at 1 h ([1]; heart, no excess, read-out: Activity in Heart, Mean): 0.13 %ID
- tissue uptake dose at 1 h ([1]; injection site, 10K-fold excess cold Compound 8, read-out: Activity in Injection Site, Mean): 1.68 %ID
- tissue uptake dose at 1 h ([1]; injection site, 100-fold excess cold Compound 8, read-out: Activity in Injection Site, Mean): 1.75 %ID
- tissue uptake dose at 1 h ([1]; injection site, no excess, read-out: Activity in Injection Site, Mean): 1.32 %ID
- tissue uptake dose at 1 h ([1]; kidneys, 3 MBq, 10K-fold excess cold Compound 8, read-out: Activity in Kidneys, Mean): 3.61 %ID
- tissue uptake dose at 1 h ([1]; kidneys, 3 MBq, 100-fold excess cold Compound 8, read-out: Activity in Kidneys, Mean): 4.2 %ID
- tissue uptake dose at 1 h ([1]; kidneys, no excess, read-out: Activity in Kidneys, Mean): 3.78 %ID
- tissue uptake dose at 1 h ([1]; liver, 10K-fold excess cold Compound 8, read-out: Activity in Liver, Mean): 9.81 %ID
- tissue uptake dose at 1 h ([1]; liver, 100-fold excess cold Compound 8, read-out: Activity in Liver, Mean): 16.1 %ID
- tissue uptake dose at 1 h ([1]; liver, no excess, read-out: Activity in Liver, Mean): 12.7 %ID
- tissue uptake dose at 1 h ([1]; lung, 10K-fold excess cold Compound 8, read-out: Activity in Lung, Mean): 0.5 %ID
- tissue uptake dose at 1 h ([1]; lung, 100-fold excess cold Compound 8, read-out: Activity in Lung, Mean): 0.5 %ID
- tissue uptake dose at 1 h ([1]; lung, no excess, read-out: Activity in Lung, Mean): 0.43 %ID
- tissue uptake dose at 1 h ([1]; muscle, 10K-fold excess cold Compound 8, read-out: Activity in Muscle, Mean): 9.61 %ID
- tissue uptake dose at 1 h ([1]; muscle, 100-fold excess cold Compound 8, read-out: Activity in Muscle, Mean): 8.76 %ID
- tissue uptake dose at 1 h ([1]; muscle, no excess, read-out: Activity in Muscle, Mean): 10.8 %ID
- tissue uptake dose at 1 h ([1]; skin, 10K-fold excess cold Compound 8, read-out: Activity in Skin, Mean): 13 %ID
- tissue uptake dose at 1 h ([1]; skin, 100-fold excess cold Compound 8, read-out: Activity in Skin, Mean): 12 %ID
- tissue uptake dose at 1 h ([1]; skin, no excess, read-out: Activity in Skin, Mean): 12.6 %ID
- tissue uptake dose at 1 h ([1]; small and large intestine, 10K-fold excess cold Compound 8, read-out: Activity in Small & Large Intestine, Mean): 8.58 %ID
- tissue uptake dose at 1 h ([1]; small and large intestine, 100-fold excess cold Compound 8, read-out: Activity in Small & Large Intestine, Mean): 7.41 %ID
- tissue uptake dose at 1 h ([1]; small and large intestine, no excess, read-out: Activity in Small & Large Intestine, Mean): 8.32 %ID
- tissue uptake dose at 1 h ([1]; spleen, 10K-fold excess cold Compound 8, read-out: Activity in Spleen, Mean): 0.52 %ID
- tissue uptake dose at 1 h ([1]; spleen, 100-fold excess cold Compound 8, read-out: Activity in Spleen, Mean): 0.57 %ID
- tissue uptake dose at 1 h ([1]; spleen, no excess, read-out: Activity in Spleen, Mean): 0.51 %ID
- tissue uptake dose at 1 h ([1]; stomach, 10K-fold excess cold Compound 8, read-out: Activity in Stomach, Mean): 1.69 %ID
- tissue uptake dose at 1 h ([1]; stomach, 100-fold excess cold Compound 8, read-out: Activity in Stomach, Mean): 0.96 %ID
- tissue uptake dose at 1 h ([1]; stomach, no excess, read-out: Activity in Stomach, Mean): 0.89 %ID
- tissue uptake dose at 1 h ([1]; thyroid, 10K-fold excess cold Compound 8, read-out: Activity in Thyroid, Mean): 0.06 %ID
- tissue uptake dose at 1 h ([1]; thyroid, 100-fold excess cold Compound 8, read-out: Activity in Thyroid, Mean): 0.04 %ID
- tissue uptake dose at 1 h ([1]; thyroid, no excess, read-out: Activity in Thyroid, Mean): 0.04 %ID
- Binding to BDL fibrogenic liver with excess cold compound (in words) [2]: Specifically Inhibited by Cold Compound 8
- Ki [3]: 56 nM
